# Laboratory results: article PMC11679033, “Assessing the Potential Synergistic/Antagonistic Effects of Citrinin and Cannabidiol on SH-SY5Y, HepG2, HEK293 Cell Lines, and Human Lymphocytes” (Toxins, 2024)
# Where “and” joins values, the source holds several entries; their conditions need not be identical. Equal values may be shown once.
# Legend:
# [1] = test system: human peripheral blood lymphocytes; experiment: Alkaline comet assay; format: cell-based; settings: 24 h, CIT 30 µM; for tail intensity, mean value ± SE: CBD 1 µM, bleomycin 1.25 µg/mL
# Protocol: The experimental design included the establishment of lymphocyte cultures, and the 24 h treatments with the test compounds, performed according to the last OECD recommendations, given in the Test Guideline No. 487—In Vitro Mammalian Cell Micronucleus Test.
# The selection of specific concentrations of test compounds adhered to the guidelines for in vitro genotoxicity testing using comet assay. […] Solutions used in testing were prepared just prior to treatment by dissolving the test compounds in ethanol (Kemika, Zagreb, Croatia).
# Two independent trials, with six experimental groups each, were conducted. A total of six replicate cultures for every single experimental group were established. This step was carried out as follows: aliquots of heparinized blood (V = 600 μL per culture) were pipetted into a growth medium RPMI-1640 (Gibco, Grand Island, NY, USA) supplemented with 10% fetal calf serum (Gibco, Grand Island, NY, USA) and antibiotics (penicillin and streptomycin; Sigma-Aldrich, Steinheim, Germany). Lymphocytes were stimulated with a mitogen phytohemagglutinin (Remel, Lenexa, KS, USA) in order to induce cell division prior to exposure to the test chemicals. Cultures were maintained in the humidified atmosphere of 5% CO2 at 37 °C (Heraeus Hera Cell 240 incubator; Langenselbold, Germany).
# Negative controls (NCs) were non-treated lymphocytes. Solvent controls (SCs) were lymphocytes treated with ethanol (its final concentration in the culture corresponded to 0.03%). Positive controls (PCs) were lymphocytes treated for 24 h with bleomycin at 1.25 µg/mL (according to [69]). The other three groups were lymphocytes exposed to single CIT, single CBD, and their combination (CIT + CBD, at the same concentrations).
# Treatments with test compounds started 20 h after the initial establishment of the cell cultures and lasted for 24 h. Upon completion of the exposure, aliquots of 100 µL of the treated cultures were pipetted in sterile conditions and used to prepare microgels for the alkaline comet assay. The remaining content of flasks was further processed using Cytokinesis-Block Micronucleus Cytome (CBMN Cyt) Assay.
# SH-SY5Y cells = experiment: MTS viability assay, SH-SY5Y; format: cell-based, human; settings: for IC20: Homo sapiens, established on SH-SY5Y and HepG2 cell models, read-out: IC20 concentration; for lowest observed adverse effect level (LOAEL), approximate / cell viability at LOAEL concentrations: SH-SY5Y, 24 h; for cell viability at LOAEL concentrations: CBD 1 μM, CIT 30 μM, alone or combined
# Protocol: (§1) Human neuroblastoma SH-SY5Y cells (ECACC 94030304), human hepatocyte carcinoma HepG2 (ECACC 85011430) and human embryonic kidney HEK293 (ECACC 85120602) used in the experiments were obtained from the European Collection of Authenticated Cell Cultures (ECACC) through Sigma-Aldrich (Steinheim, Germany). SH-SY5Y cells were grown in Dulbecco’s Modified Eagle’s Medium F12 containing 15% (v/v) fetal bovine serum (FBS), 2 mM glutamine, 1% (v/v) penicillin/streptomycin (PenStrep solution), and 1% (v/v) non-essential amino acids (NEAA solution). HEK293 and HepG2 cells were grown in EMEM medium (Sigma-Aldrich, Steinheim, Germany) supplemented with 10% (v/v) FBS, 2 mM glutamine, 1% (v/v) PenStrep and 1% (v/v) NEAA. All media and supplements were purchased from Sigma-Aldrich, Steinheim, Germany. Cells were cultured at 37 °C in a 5% CO2 atmosphere, the medium was changed every two days, and passage was carried out according to the manufacturer’s protocol.
# (§2) MTS assay (CellTiter 96® AQueous One Solution Cell Proliferation Assay, Promega, Madison, WI, USA) was used to determine the viability of cells/cytotoxic properties of tested compounds by measuring cells’ mitochondrial succinate dehydrogenase activity. The procedure followed a previously described protocol. In brief, the cells were seeded in transparent 96-well plates at a density of 20,000 cells/well one day before the experiment and treated with tested compounds in concentrations: 0.01, 0.1, 0.5, 1, 2, 5, 10, 25, 50, 100 and 300 µM. Triton X-100 at a final concentration of 0.18% (v/v) (stock of 9% in water; Sigma-Aldrich, Steinheim, Germany) was used as a positive control. After 24 h, treatment with tested compounds and incubation with MTS reagent, the absorbance was read at 492 nm on an Infinite M200PRO (Tecan Group Ltd., Männedorf, Switzerland) plate reader. Data were taken from at least three independent experiments (each treatment performed in duplicate or triplicate) and expressed as percentages (mean ± standard error) of viable cells compared to control (untreated) cells. IC50 values were determined by a nonlinear fit equation predefined in Prism software 8 (GraphPad Software, San Diego, CA, USA).
# (§3) The same method was used to evaluate a potential toxic synergistic effect on cells exposed to a combination of CBD and CIT at approximately LOAEL doses (lowest observed adverse effect level, 1 and 30 μM for SH-SY5Y and HepG2, and 2 and 0.05 μM for HEK293, respectively). There is no official recommendation for CBD oral use, but according to the available literature, we used a dose that corresponded to daily intake, which was 10 mg/kg/day (calculated on a person of 70 kg ~ 1 μM). These selected LOAEL concentrations were used for all other assays as well.
# [2] = MTS viability assay, SH-SY5Y; format: cell-based, human; settings: human, SH-SY5Y cells; SH-SY5Y, 24 h exposure, MTS; read-out: IC50 (cytotoxicity)
# Protocol: as §1, §2, §3
# HEK293 cells [3] = experiment: MTS viability assay, HEK293; format: cell-based, human; settings: HEK293, 24 h; for cell viability at LOAEL concentrations: CBD 2 μM, CIT 0.05 μM, alone or combined
# Protocol: as §1, §2, §3
# [4] = MTS viability assay, HEK293; format: cell-based, human; settings: human, HEK293 cells; HEK293, 24 h exposure, MTS; read-out: IC50 (cytotoxicity)
# Protocol: as §1, §2, §3
# HEK293 cells [5] = experiment: Cell membrane integrity (LDH release), HEK293; format: cell-based, human; settings: HEK293, 24 h; CBD 2 μM, CIT 0.05 μM, alone or combined
# Protocol: Cell membrane integrity was determined after exposure to compounds’ concentrations corresponding to LOAEL concentrations in 24 h by measuring the release of the intracellular lactate dehydrogenase (LDH) and the procedure followed a previously described protocol using The CytoTox-ONE™ Homogeneous Membrane Integrity Assay (Promega, Madison, WI, USA). In short, the cells were seeded in black 96-well plates at a density of 10,000 cells/well one day before the experiment and treated with selected LOAEL concentrations. Triton X-100 at a final concentration of 0.18% (v/v) (stock of 9% in water) was used as a positive control to determine the maximal LDH release. Data were taken from at least two independent experiments (each treatment performed in duplicate or triplicate) and plotted as a percentage of LDH release compared to the determined maximal LDH release, according to the manufacturer’s calculation protocol.
# HepG2 cells = experiment: MTS viability assay, HepG2; format: cell-based, human; settings: for lowest observed adverse effect level (LOAEL), approximate / cell viability at LOAEL concentrations: HepG2, 24 h; for cell viability at LOAEL concentrations: CBD 1 μM, CIT 30 μM, alone or combined
# Protocol: as §1, §2, §3
# [6] = MTS viability assay, HepG2; format: cell-based, human; settings: human, HepG2 cells; HepG2, 24 h exposure, MTS; read-out: IC50 (cytotoxicity)
# Protocol: as §1, §2, §3
Compound,"tail intensity, mean value ± SE [1]",IC20 (SH-SY5Y cells),"lowest observed adverse effect level (LOAEL), approximate (SH-SY5Y cells)",cell viability at LOAEL concentrations (SH-SY5Y cells),IC50 at 24 h [2],"lowest observed adverse effect level (LOAEL), approximate (HEK293 cells [3])",cell viability at LOAEL concentrations (HEK293 cells [3]),IC50 at 24 h [4],cell membrane integrity (LDH release) (HEK293 cells [5]),"lowest observed adverse effect level (LOAEL), approximate (HepG2 cells)",cell viability at LOAEL concentrations (HepG2 cells),"cytotoxicity fold higher than CIT (HepG2 cells; in both HepG2 and SH-SY5Y, 24 h)",IC50 at 24 h [6],group median value of tail intensity [1],IC50 fold lower than that of CBD (HEK293 cells [3])
"C=C(C)[C@@H]1CCC(C)=C[C@H]1c1c(O)cc(CCCCC)cc1O [CBD, cannabidiol]",1.07 ± 0.08%,1 µM and 3.15 µg/mL,~ 1 μM,did not independently impact cell viability,13 ± 2 µM,~2 µM,did not independently impact cell viability,5 ± 1 µM,not significantly compromised,~ 1 μM,did not independently impact cell viability,1.5- to 4 fold,40 ± 7 µM,–,–
"CC1=C2C(=CO[C@H](C)[C@H]2C)C(O)=C(C(=O)O)C1=O [CIT, citrinin]",6.56 ± 0.37%,30 µM and 7.5 µg/mL,~30 µM,did not independently impact cell viability,52 ± 8 µM,~0.05 µM,did not independently impact cell viability,0.44 ± 0.02 µM,not significantly compromised,~30 µM,did not independently impact cell viability,–,59 ± 9 µM,below 10%,11 fold
